Measured values as given in PMC9911596 (Nature Communications, 2023).

Target: T1, Vtc1/Vtc3/Vtc4 complex (VTC complex) (Saccharomyces cerevisiae, UniProt P47075+Q02725, Q02725:K333A/Q02725:K362A/Q02725:K364A/Q02725:Y380F)
T1 construct: full-length subunits co-expressed in Expi293F; Vtc1 C-terminal HA, Vtc3 N-terminal 3xFlag, Vtc4 C-terminal 2xStrep; detergent-purified; 3:1:1 pentamer; with Vacuolar transporter chaperone complex subunit 1
T1 sequence (P47075 1-721): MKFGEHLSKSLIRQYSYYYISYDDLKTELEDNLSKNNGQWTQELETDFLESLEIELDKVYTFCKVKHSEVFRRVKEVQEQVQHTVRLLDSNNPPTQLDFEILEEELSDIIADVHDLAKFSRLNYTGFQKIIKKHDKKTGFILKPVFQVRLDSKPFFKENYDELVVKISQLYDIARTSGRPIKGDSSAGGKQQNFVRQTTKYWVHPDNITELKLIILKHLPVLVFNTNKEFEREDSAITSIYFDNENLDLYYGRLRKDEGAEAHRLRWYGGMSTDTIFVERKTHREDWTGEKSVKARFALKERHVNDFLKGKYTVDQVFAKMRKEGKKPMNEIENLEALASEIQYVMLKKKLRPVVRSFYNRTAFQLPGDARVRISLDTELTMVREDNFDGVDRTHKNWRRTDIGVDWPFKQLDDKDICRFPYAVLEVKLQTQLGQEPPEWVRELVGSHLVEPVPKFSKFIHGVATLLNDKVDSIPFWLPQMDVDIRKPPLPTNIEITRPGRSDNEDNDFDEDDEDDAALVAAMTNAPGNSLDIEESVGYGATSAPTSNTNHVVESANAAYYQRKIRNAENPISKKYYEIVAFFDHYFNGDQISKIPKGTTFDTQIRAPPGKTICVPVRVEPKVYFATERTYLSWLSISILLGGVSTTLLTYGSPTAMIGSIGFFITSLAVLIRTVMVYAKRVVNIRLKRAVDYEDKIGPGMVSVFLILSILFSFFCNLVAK
T1 sequence (Q02725 1-835 K333A/K362A/K364A/Y380F): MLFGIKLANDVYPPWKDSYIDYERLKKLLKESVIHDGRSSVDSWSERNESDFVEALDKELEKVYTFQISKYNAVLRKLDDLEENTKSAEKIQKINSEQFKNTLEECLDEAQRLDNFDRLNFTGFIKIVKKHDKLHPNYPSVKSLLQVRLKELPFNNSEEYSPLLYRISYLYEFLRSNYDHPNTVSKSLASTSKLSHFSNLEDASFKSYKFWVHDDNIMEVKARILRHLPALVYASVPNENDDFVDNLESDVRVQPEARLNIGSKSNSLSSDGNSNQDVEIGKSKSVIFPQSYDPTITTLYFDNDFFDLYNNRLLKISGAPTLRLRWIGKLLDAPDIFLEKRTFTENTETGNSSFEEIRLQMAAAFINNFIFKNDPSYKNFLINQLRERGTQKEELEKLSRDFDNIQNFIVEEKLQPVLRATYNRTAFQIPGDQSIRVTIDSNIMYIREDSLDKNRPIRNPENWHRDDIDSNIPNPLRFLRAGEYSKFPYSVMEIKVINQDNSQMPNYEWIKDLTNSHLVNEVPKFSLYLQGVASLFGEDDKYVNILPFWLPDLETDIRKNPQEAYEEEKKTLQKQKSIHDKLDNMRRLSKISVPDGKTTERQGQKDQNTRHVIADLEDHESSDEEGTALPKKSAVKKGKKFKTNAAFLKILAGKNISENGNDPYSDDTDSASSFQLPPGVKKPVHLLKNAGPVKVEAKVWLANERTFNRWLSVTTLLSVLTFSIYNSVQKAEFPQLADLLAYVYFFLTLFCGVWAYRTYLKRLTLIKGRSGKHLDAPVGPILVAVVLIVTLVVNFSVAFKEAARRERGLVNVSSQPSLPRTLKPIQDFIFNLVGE
T1 sequence (P40046 2-129 partner): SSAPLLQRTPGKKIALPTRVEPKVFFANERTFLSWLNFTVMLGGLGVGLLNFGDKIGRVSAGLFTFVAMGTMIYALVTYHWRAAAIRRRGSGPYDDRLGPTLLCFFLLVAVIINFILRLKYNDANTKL
Assay: polyP synthesis, TBE-PAGE
Format: biochemical
Details: activator; 15 mM ATP, 10 mM MgCl2, 1 mM MnCl2, 0.5 mM pyrophosphate, 27 °C; TTM cleft (second site) mutant

Compound: O=P(O)(O)O[C@H]1[C@H](OP(=O)(O)O)[C@@H](OP(=O)(O)O)[C@H](OP(=O)(O)O)[C@@H](OP(=O)(O)O)[C@H]1OP(=O)(O)O [InsP6]
- polyP synthesis, TBE-PAGE: had little impact on InsP6-stimulated polyP synthesis by VTC complex
